These are literature values, as cited in patent US20050074494A1, “Itraconazole immediate release formulation” (priority 2003, published 2005).

Turning to `CCC(C)n1ncn(-c2ccc(N3CCN(c4ccc(OCC5COC(Cn6cncn6)(c6ccc(Cl)cc6Cl)O5)cc4)CC3)cc2)c1=O` (stereo not drawn) [Itraconazole, 4-[4-[4-[4-[[2-(2,4-dichlorophenyl)-2-(1H-1,2,4-triazol-1-ylmethyl)-1,3-dioxolan-4-yl]methoxy]phenyl]-1-piperazinyl]phenyl]-2,4-dihydro-2-(1-methylpropyl)-3H-1,2,4-triazol-3-one], the solubility in alcohols entry (alcohols) is reported as “very slightly soluble”. The solubility in dichloromethane result (dichloromethane) is given as “freely soluble”. In addition, for the setting “water”, the solubility in water result is “insoluble”.
